The test system of one series is HepG2. As to the kind of experiment: MTT test for inhibition of tumor cells, HepG2. It is filed as cell-based. The conditions noted are these: 48 h.
For the next series, the system named is HeLa. As to the kind of experiment: MTT test for inhibition of tumor cells, HeLa. It is filed as cell-based. The settings on record: 48 h. For orientation: Formazan colour is commonly taken as a measure of viable cells.
In a further series the test system is HL-7702. As to the kind of experiment: MTT test on human normal hepatocytes HL-7702. It is filed as cell-based. The conditions noted are these: human normal hepatocytes HL-7702, MTT, 48 h.
In a further series the test system is A549. In words: IC50 against human lung cancer cell A549. It is filed as cell-based. The settings on record: for antitumor activity on A549 compared with etoposide: vs etoposide.
For another series, the system named is MCF7. As to the kind of experiment: IC50 against breast cancer cell MCF7. Format: cell-based, human. The settings on record: vs etoposide.
A further series concerns MRC-5. As to the kind of experiment: IC50 against human embryonic lung cells MRC-5. The settings on record: for toxicity on normal cell line MRC-5 compared with etoposide: vs etoposide.
The test system of a further series is HMEC. In words: IC50 against human mammary epithelial cells HMEC. The settings on record: for toxicity on normal cell line HMEC compared with etoposide: vs etoposide.
Another series deals with H8. In words: IC50 against human cervical immortalized cells H8. The conditions noted are these: for toxicity on normal cell line H8 compared with etoposide: vs etoposide.

Usually IC50 stands for the concentration that gives 50% inhibition.

Method for HeLa: HepG2, HeLa cell lines and human normal liver cells HL-7702 in a logarithmic growth period were centrifuged at 1000 rpm for 5 min, and the supernatant was discarded, the cells were suspended with a suitable amount of culture medium to adjust the cell concentration to 3.5×10^4/well, the cells were seeded in 96-well plates, and the following experimental groups were set:
100 μl of DMSO was added to each well, followed by shaking on a shaker for 30 min at 37° C., the absorbance (OD) was measured at 492 nm, and the MTT ratio was calculated as the OD value of drug group/OD value of negative control group.

Regarding “4β-S-(3-phenyl-1,3,4-thiadiazol-2(3H)thione potassium salt-5)-4′-demethylepipodophyllotoxin [Compound 26]”, the concentration for half-maximal inhibition (IC50) came out at 5.7 ± 0.33 µM with HepG2 and 48.49 ± 0.38 µM with HeLa.
Consider “4β-S-(5-phenylbenzoxazol-2)-4′-demethylepipodophyllotoxin [Compound 12]”, for which the IC50 with HepG2 was 10.2 ± 0.46 µM; in the series with HeLa, above 100 µM; in the series with HL-7702, 56.8 ± 1.32 µM.
On to “4β-S-(6-chlorobenzoxazol-2)-4′-demethylepipodophyllotoxin [Compound 16]”, for which the concentration for half-maximal inhibition (IC50) in the series with HepG2 is 22.3 ± 1.46 µM; with HeLa, 32.3 ± 1.87 µM; in the series with HL-7702, 68.3 ± 4.5 µM.
Consider `COc1cc(C2c3cc4c(cc3C(O)C3COC(=O)C23)OCO4)cc(OC)c1O` (centres unmarked) [4′-Demethylepipodophyllotoxin, 4′-demethylepipodophyllotoxin, reference compound], for which the IC50 in the series with HepG2 came out at 49.32 ± 0.38 µM; in the series with HeLa, 63.09 ± 0.49 µM; in the series with HL-7702, 52.9 ± 0.85 µM.
On the same counts, the results for `COc1cc([C@@H]2c3cc4c(cc3[C@@H](Sc3ccc(F)cc3)[C@H]3COC(=O)[C@H]23)OCO4)cc(OC)c1O` [Compound 6, 4β-S-(4-fluorobenzene-1)-4′-demethylepipodophyllotoxin] are 4.24 ± 0.97 µM, 55.28 ± 0.21 µM and 51 ± 0.88 µM.
For `COc1cc([C@@H]2c3cc4c(cc3[C@@H](Sc3nc5cc(F)ccc5s3)[C@H]3COC(=O)[C@H]23)OCO4)cc(OC)c1O` [Compound 8, 4β-S-(5-fluorobenzothiazol-2)-4′-demethylepipodophyllotoxin], the IC50 in the series on HepG2 was determined as 1.49 ± 0.12 µM; with HeLa, 2.3 ± 0.12 µM; with HL-7702, 966.2 ± 7.31 µM. The “antitumor activity on A549 compared with etoposide” value with A549 is recorded as “significantly improved”. In the series on MCF7, the “antitumor activity on MCF7 compared with etoposide” value is recorded as “significantly improved”. In the series with MRC-5, the “toxicity on normal cell line MRC-5 compared with etoposide” value is recorded as “significantly lower”. Also, in the series with HMEC, the “toxicity on normal cell line HMEC compared with etoposide” value is “significantly lower”. In addition, in the series with H8, the “toxicity on normal cell line H8 compared with etoposide” value is “significantly lower”.
`COc1cc(C2c3cc4c(cc3C(Sc3nc5cc(F)ccc5o3)C3COC(=O)C23)OCO4)cc(OC)c1OC` (stereo not drawn) [Compound 9, 4β-S-(5-Fluorobenzoxazol-2)-podophyllotoxin]: in the series on HL-7702, the IC50 is above 1000 µM.
For `COc1cc([C@@H]2c3cc4c(cc3[C@@H](Sc3nc5cc(F)ccc5o3)[C@H]3COC(=O)[C@H]23)OCO4)cc(OC)c1O` [Compound 10, 4β-S-(5-fluorobenzoxazol-2)-4′-demethylepipodophyllotoxin], the IC50 is 1.55 ± 0.29 µM in the series with HepG2; 1.49 ± 0.14 µM in the series with HeLa; 2000 ± 12.8 µM in the series on HL-7702; 2.34 ± 0.16 µM with A549 (human lung cancer cell A549); 348.9 ± 3.1 µM with MRC-5 (read-out: IC50 MRC-5, normal cell line, human embryonic lung cells MRC-5); 323.4 ± 3.21 µM in the series on HMEC (read-out: IC50 HMEC, normal cell line, human mammary epithelial cells HMEC). For the same molecule, the IC50 in the series on H8 (read-out: IC50 H8, normal cell line, human cervical immortalized cells H8) came out at 518.9 ± 1.9 µM. The “antitumor activity on A549 compared with etoposide” value in the series with A549 was “significantly improved”. Also, the “antitumor activity on MCF7 compared with etoposide” value in the series on MCF7 was “significantly improved”. Further, the “toxicity on normal cell line MRC-5 compared with etoposide” value in the series on MRC-5 is “significantly lower”. Further, the “toxicity on normal cell line HMEC compared with etoposide” value in the series with HMEC is “significantly lower”. For the same molecule, the “toxicity on normal cell line H8 compared with etoposide” value in the series on H8 is “significantly lower”.
In the case of `COc1cc([C@@H]2c3cc4c(cc3[C@@H](Sc3ccc5ccccc5c3)[C@H]3COC(=O)[C@H]23)OCO4)cc(OC)c1O` [Compound 20, 4β-S-(naphthalen-2)-4′-demethylepipodophyllotoxin], the values for the IC50 with HepG2, in the series with HeLa and in the series on HL-7702 were 6.02 ± 0.25 µM, 5.54 ± 0.3 µM and 76.8 ± 2.11 µM, respectively.
For `COc1cc([C@@H]2c3cc4c(cc3[C@@H](Sc3nc5ncccc5[nH]3)[C@H]3COC(=O)[C@H]23)OCO4)cc(OC)c1O` [Compound 22, 4β-S-(1H-imidazo[4,5-B]pyridin-2)-4′-demethylepipodophyllotoxin], the values for the IC50 in the series with HepG2, in the series with HeLa and with HL-7702 were 8.31 ± 0.43 µM, above 100 µM and 33.5 ± 3.25 µM, respectively.
For the molecule `COc1cc([C@@H]2c3cc4c(cc3[C@@H](Sc3nnnn3-c3ccccc3)[C@H]3COC(=O)[C@H]23)OCO4)cc(OC)c1O` [Compound 24, 4β-S-(1-phenyltetrazol-5)-4′-demethylepipodophyllotoxin], the half-inhibitory concentration (IC50) is 59.69 ± 0.31 µM with HepG2, 9.73 ± 0.11 µM with HeLa and 71 ± 3.67 µM in the series on HL-7702.
